Results: patent US5574043A, “Certain [1,2,5-thiadiazol-4-yl]-1-azabicyclo [3.2.1]octane derivatives and their pharmaceutical uses” (Novo Nordisk A/S, priority 1995, dated 1996)
Structures can show the parent of a compound that is named as a salt.

What follows are compounds tested against muscarinic acetylcholine receptors (assay: Inhibition of specific binding of 3H-Oxotremorine-M (OXO BINDING) in vitro, rat cortex). Settings: rat cortex homogenate, 3H-Oxotremorine 1.0 nM, 30 min at 25° C., pH 7.4.
Set-up: species or system male Wistar rats
Excerpt: The pharmacological properties of the compounds of the invention can be illustrated by determining their capability to inhibit the specific binding of ^3 H-Oxotremorine-M (^3 H-Oxo). Birdsdall N. J. M., Hulme E. C., and Burgen A. S. V. (1980). "The Character of Muscarinic Receptors in Different Regions of the Rat Brain". Proc. Roy. Soc. London (Series B) 207,1.
^3 H-Oxo labels muscarinic receptor in the CNS (with a preference for agonist domains of the receptors). Three different sites are labelled by ^3 H-Oxo. […] Using the present experimental conditions only the high and medium affinity sites are determined.
The inhibitory effects of compounds on ^3 H-Oxo binding reflects the affinity for muscarinic acetylcholine receptors.
All preparations are performed at 0°-4° C. unless otherwise indicated. Fresh cortex (0.1-1 g) from male Wistar rats (150-250 g) is homogenized for 5-10 s in 10 ml 20 mM Hepes pH: 7.4, with an Ultra-Turrax homogenizer. The homogenizer, is rinsed with 10 ml of buffer and the combined suspension centrifuged for 15 min at 40,000×g. The pellet is washed three times with buffer. In each step the pellet is homogenized as before in 2×10 ml of buffer and centrifuged for 10 min at 40,000×g.
The final pellet is homogenized in 20 mM Hepes pH: 7.4 (100 ml per g of original tissue) and used for binding assay. Aliquots of 0.5 ml is added 25 μl of test solution and 25 μl of ^3 H-Oxotremorine (1.0 nM, final concentration) mixed and incubated for 30 min at 25° C. Non-specific binding is determined in triplicate using arecoline (1 μg/ml, final concentration) as the test substance. After incubation samples are added 5 ml of ice-cold buffer and poured directly onto Whatman GF/C glass fibre filters under suction and immediately washed 2 times with 5 ml of ice-cold buffer. The amount of radioactivity on the filters are determined by conventional liquid scintillation counting. Specific binding is total binding minus non specific binding.
Test substances are dissolved in 10 ml water (if necessary heated on a steam bath for less than 5 minutes) at a concentration of 2.2 mg/ml.
The test value will be given as IC50 (the concentration (ng/ml) of the test substance which inhibits the specific binding of ^3 H-Oxo by 50%).
IC50 =(applied test substance concentration) [formula] where Co is specific binding in control assays and Cx is the specific binding in the test assay. (The calculations assume normal mass-action kinetics).

First: N#CCSc1nsnc1[C@H]1CN2CCC[C@H]1C2 (relative stereo) [Compound 79, Exo-6-(3-cyanomethylthio-1,2,5-thiadiazol-4-yl)-1-azabicyclo[3.2.1]octane oxalate]
Second: N#CCSc1nsnc1[C@H]1CN2CCC[C@@H]1C2 (relative stereo) [Compound 89, Endo-6-(3-cyanomethylthio-1,2,5-thiadiazol-4-yl)-1-azabicyclo[3.2.1]octane oxalate]
The “Inhibition in vitro OXO BINDING IC50” value of the first is 24-fold lower: 0.50 ng/mL for the first, 12 ng/mL for the second.

Compared with `N#CCCSc1nsnc1[C@H]1CN2CCC[C@H]1C2` (relative stereo) [Compound 80, Exo-6-(3-(2-cyanoethylthio)-1,2,5-thiadiazol-4-yl)-1-azabicyclo[3.2.1]octane oxalate], `N#CCCSc1nsnc1[C@H]1CN2CCC[C@@H]1C2` (relative stereo) [Compound 90, Endo-6-(3-(2-cyanoethylthio)-1,2,5-thiadiazol-4-yl)-1-azabicyclo[3.2.1]octane oxalate] is 11-fold higher in “Inhibition in vitro OXO BINDING IC50” value: 0.30 ng/mL for the first, 3.3 ng/mL for the second.

Compared with `N#CCCCSc1nsnc1[C@H]1CN2CCC[C@H]1C2` (relative stereo) [Compound 81, Exo-6-(3-(3-cyanopropyithio)-1,2,5-thiadiazol-4-yl)-1-azabicyclo[3.2.1]octane oxalate], `N#CCCCSc1nsnc1[C@H]1CN2CCC[C@@H]1C2` (relative stereo) [Compound 91, Endo-6-(3-(3-cyanopropylthio)-1,2,5-thiadiazol-4-yl)-1-azabicyclo[3.2.1]octane oxalate] is 13-fold higher in “Inhibition in vitro OXO BINDING IC50” value: 0.40 ng/mL for the first, 5.2 ng/mL for the second.

Compared with `N#Cc1ccc(CSc2nsnc2[C@H]2CN3CCC[C@H]2C3)cc1` (relative stereo) [Compound 82, Exo-6-(3-(4-cyanobenzylthio)-1,2,5-thiadiazol-4-yl)-1-azabicyclo[3.2.1]octane oxalate], `c1ccc(CSc2nsnc2[C@H]2CN3CCC[C@@H]2C3)cc1` (relative stereo) [Compound 88, Endo-6-(3-benzylthio-1,2,5-thiadiazol-4-yl)-1-azabicyclo[3.2.1]octane oxalate] is 15-fold higher in “Inhibition in vitro OXO BINDING IC50” value: 0.40 ng/mL for the first, 6.1 ng/mL for the second.

`c1ccc(CCCSc2nsnc2[C@H]2CN3CCC[C@H]2C3)cc1` (relative stereo) [Compound 83, Exo-6-(3-(3-phenylpropylthio)-1,2,5-thiadiazol-4-yl)-1-azabicyclo[3.2.1]octane oxalate] and `c1ccc(CSc2nsnc2[C@H]2CN3CCC[C@H]2C3)cc1` (relative stereo) [Compound 134, Exo-6-(3-benzylthio-1,2,5-thiadiazol-4-yl)-1-azabicyclo[3.2.1]octane oxalate] are within 1.5-fold of each other in “Inhibition in vitro OXO BINDING IC50” value: 0.43 ng/mL for the first, 0.47 ng/mL for the second.

First: c1ccc(OCCSc2nsnc2[C@@H]2CN3CCC[C@H]2C3)cc1 (relative stereo) [Compound 84, Endo-6-(3-(2-phenoxyethylthio)-1,2,5-thiadiazol-4-yl)-1-azabicyclo[3.2.1]octane oxalate]
Second: c1ccc(OCCSc2nsnc2[C@H]2CN3CCC[C@H]2C3)cc1 (relative stereo) [Compound 133, Exo-6-(3-(2-phenoxyethylthio)-1,2,5-thiadiazol-4-yl)-1-azabicyclo[3.2.1]octane oxalate]
The “Inhibition in vitro OXO BINDING IC50” value of the first is 29-fold higher: 13 ng/mL for the first, 0.45 ng/mL for the second.

First: CSc1nsnc1[C@@H]1CN2CCC[C@H]1C2 (relative stereo) [Compound 85, Endo-6-(3-methylthio-1,2,5-thiadiazol-4-yl)-1-azabicyclo[3.2.1]octane oxalate]
Second: COc1nsnc1[C@@H]1CN2CCC[C@@H]1C2 (relative stereo) [Compound 117, Exo-6-(3-methoxy-1,2,5-thiadiazol-4-yl)-1-azabicyclo[3.2.1]octane oxalate]
The “Inhibition in vitro OXO BINDING IC50” value of the first is 3.6-fold higher: 7.2 ng/mL for the first, 2.0 ng/mL for the second.

Going from `CC(C)CCSc1nsnc1[C@@H]1CN2CCC[C@H]1C2` (relative stereo) [Compound 86, Endo-6-(3-isopentylthio-1,2,5-thiadiazol-4-yl)-1-azabicyclo[3.2.1]octane oxalate] to `CC(C)CCCSc1nsnc1[C@H]1CN2CCC[C@@H]1C2` (relative stereo) [Compound 87, Endo-6-(3-isohexylthio-1,2,5-thiadiazol-4-yl)-1-azabicyclo[3.2.1]octane oxalate], the “Inhibition in vitro OXO BINDING IC50” value rises from 3.5 ng/mL to 10 ng/mL (2.9-fold).

First: N#CCCCCSc1nsnc1[C@H]1CN2CCC[C@@H]1C2 (relative stereo) [Compound 92, Endo-6-(3-(4-cyanobutylthio)-1,2,5-thiadiazol-4-yl)-1-azabicyclo[3.2.1]octane oxalate]
Second: CCCCCOc1nsnc1[C@@H]1CN2CCC[C@@H]1C2 (relative stereo) [Compound 121, Exo-6-(3-pentyloxy-1,2,5-thiadiazol-4-yl)-1-azabicyclo[3.2.1]octane oxalate]
The “Inhibition in vitro OXO BINDING IC50” value of the first is 4.7-fold higher: 1.5 ng/mL for the first, 0.32 ng/mL for the second.

Going from `CCCCS(=O)(=O)c1nsnc1[C@@H]1CN2CCC[C@@H]1C2` (relative stereo) [Compound 115, Exo-6-(3-butylsulfonyl-1,2,5-thiadiazol-4-yl)-1-azabicyclo[3.2.1]octane oxalate] to `CCCCOc1nsnc1[C@@H]1CN2CCC[C@@H]1C2` (relative stereo) [Compound 120, Exo-6-(3-butoxy-1,2,5-thiadiazol-4-yl)-1-azabicyclo[3.2.1]octane oxalate], the “Inhibition in vitro OXO BINDING IC50” value falls from 0.50 ng/mL to 0.28 ng/mL (1.8-fold).

Going from `FC(F)(F)C(F)(F)C(F)(F)COc1nsnc1[C@@H]1CN2CCC[C@@H]1C2` (relative stereo) [Compound 116, Exo-6-(3-(2,2,3,3,4,4,4-heptafluorobutyloxy)-1,2,5-thiadiazol-4-yl)-1-azabicyclo[3.2.1]octane oxalate] to `CCOc1nsnc1[C@@H]1CN2CCC[C@@H]1C2` (relative stereo) [Compound 118, Exo-6-(3-ethoxy-1,2,5-thiadiazol-4-yl)-1-azabicyclo[3.2.1]octane oxalate], the “Inhibition in vitro OXO BINDING IC50” value falls from 1.4 ng/mL to 0.35 ng/mL (4-fold).

First: CCCOc1nsnc1[C@@H]1CN2CCC[C@@H]1C2 (relative stereo) [Compound 119, Exo-6-(3-propoxy-1,2,5-thiadiazol-4-yl)-1-azabicyclo[3.2.1]octane oxalate]
Second: CCCCCCOc1nsnc1[C@@H]1CN2CCC[C@@H]1C2 (relative stereo) [Compound 122, Exo-6-(3-hexyloxy-1,2,5-thiadiazol-4-yl)-1-azabicyclo[3.2.1]octane oxalate]
The “Inhibition in vitro OXO BINDING IC50” value of the first is 2.2-fold lower: 0.30 ng/mL for the first, 0.67 ng/mL for the second.

With `CC(C)CCCOc1nsnc1[C@@H]1CN2CCC[C@@H]1C2` (relative stereo) [Compound 123, Exo-6-(3-isohexyloxy-1,2,5-thiadiazol-4-yl)-1-azabicyclo[3.2.1]octane dioxalate] the “Inhibition in vitro OXO BINDING IC50” value was 0.47 ng/mL.

Same assay, conditions: rat cortex homogenate, 3H-Oxotremorine 1.0 nM, 30 min at 25° C., pH 7.4; L-tartrate

`CCCCSc1nsnc1C1CN2CCC1CC2.O=C(O)C(O)C(O)C(=O)O` (single isomer, unassigned) [Compound 55, (-) 3-(3-Butylthio-1,2,5-thiadiazol-4-yl)-1-azabicyclo[2.2.2]octane (+) L-tartrate] was tested, and the “Inhibition in vitro OXO BINDING IC50” value was 0.43 ng/mL.
